The text below walks through data of patent US20230404963A1, “COMBINATIONS OF METAP2 INHIBITORS AND CD4/6 INHIBITORS FOR THE TREATMENT OF CANCER” (SynDevRx, Inc., priority 2020, published 2023).

The structures appear in SMILES notation.

The assay concerns MCF-7 tumors. The experiment in a line: Tumor Growth Inhibition in mice bearing MCF-7 tumors treated with Compound 1 and/or ribociclib. The class given is in vivo. The method, then:
In the following experiment, mice bearing MCF-7 tumors were treated with either a vehicle control, Compound 1 alone, ribociclib alone, or with a combination of Compound 1 and ribociclib. MCF-7 were cultured in DMEM supplemented with 10% FBS. On the day of implantation, cells were washed 1× with phosphate-buffered saline (PBS). Following washing, cells were pelleted (5 min @ 1000 rpm, RT) and then counted with a hemocytometer. A cell concentration of 5×10^6 per mouse was re-suspended in an appropriate amount of PBS and 1:1 Matrigel. The suspension was kept on ice until implantation. Forty-eight hours prior to cell implantation, a 17-β estradiol pellet (0.36 mg 60-day slow release pellet) was be implanted subcutaneously between the scapulae of each Female Nu/j mouse. […] Once anesthetized, the mice were positioned ventral side up and anesthesia maintained through a fitted nose cone. The MCF-7 cell suspension was injected into the mammary fat pad at a volume of 100 μl containing 5×10^6 cells per mouse. Beginning 5 days post cell implantation, tumors were measured two times weekly (length×width) using a wireless digital calipers in conjunction with UWAVE-R to record measurements. […] The first day of treatment was designated “Day 1”. The mice were dosed either subcutaneously (SC), orally (PO), or by both dose routes, as put forth in the experimental designed summarized in Table 3. Doses were calculated by individual body weights. [table] The first group of mice (Group #1) were administered the vehicle control by oral administration once a day (QD). […] The fifth group of mice (Group #5) were administered Ribociclib at a dose of 35 mg/kg by oral administration once a day (QD). The sixth group of mice (Group #6) were administered Ribociclib at a dose of 70 mg/kg by oral administration once a day (QD). Twice weekly body weights and tumor measurements were recorded for the duration of the study. […] Upon euthanasia, a maximum volume terminal blood sample was obtained via cardiac puncture and split 200 μL in a K2EDTA MiniCollect tube for plasma separation and 420 μL in to a MiniCollect serum separator tube for half the mice for Clinical Chemistry analysis. For the other half of the mice, >200 μL of blood was collected in to K2EDTA MiniCollect tubes (LTT) for CBC analysis. The MiniCollect blood tubes for both plasma and serum were centrifuged at 8000 rpm for 5 minutes. The plasma was retained for biomarker analysis at −80° C., the serum and whole blood (LTT) were further analyzed. Additionally, tumor from the mice were dissected, weighed, and split into two pieces. Half of the tumor was placed into buffered formalin and stored at room temperature. Half of the tumor was snap-frozen in liquid N2, and stored at −80° C. […]

As to `CN(C)C(=O)c1cc2cnc(Nc3ccc(N4CCNCC4)cn3)nc2n1C1CCCC1` [Ribociclib, ribociclib], the TGI % is, setting by setting: (day 14, Group 5: Ribociclib 35 mg/kg PO QD) 57%; (day 14, Group 6: Ribociclib 70 mg/kg PO QD) 70%; (day 18, Group 5: Ribociclib 35 mg/kg PO QD (10 times the dose on day 16)) 60%; (day 18, Group 6: Ribociclib 70 mg/kg PO QD (10 times the dose on day 16)) 70%.
